In US20190137482A1, “HIGH THROUGHPUT SCREENING OF AGENTS ON DOPAMINERGIC NEURONS” (Cell Cure Neurosciences Ltd., priority 2013, published 2019):

Key:
[1] = system: hESC-derived dopaminergic neurons; assay: DansylD1 labeling and uptake in hESC-derived dopaminergic neurons; type: cell-based, human; settings: for DansylD1 fluorescence level: hESC-derived dopaminergic neurons after 26 days of differentiation, agent present in the medium, FIGS. 6A-6D
Text: In order to direct the differentiation of hESCs into DA neurons, the cells were first directed to become neural progenitors within free-floating spheres (2 weeks) in the presence of the dual SMAD inhibitors (LDN193189+SB431542), FGF8, Purmorphamine and CHIR. They were further directed to differentiate into DA progenitors (7 days) as adherent cultures on laminin/fibronectin in the presence of FGF8, Purmorphamine and CHIR. Finally, they were differentiated into mature DA neurons (7 days) in the presence of the following factors (BDNF, NT4, AA, db-cAMP, TGFbeta3, GDNF and DAPT). The relevant factors/mitogens were replaced every 2-3 days.
(§3) For Binding and uptake of the fluorescent ligand, 500-1000 nM of DansylD1™ (Five Photon Biochemicals™, Lot#81672) was administrated to the seeded cells after 2 weeks of differentiation on the coverslips or on 12/24 wells plastic plates for 10-15 minutes in 37° C. […] Uptake levels of the dansylD1 fluorescent ligand molecule were detected and analyzed by fluorescence microscope and a fluorescence micro-plate reader (Bioteck, 333/515 nm). Acquisition and analysis was performed using Magelan software and Microsoft Excel.
The neuronal culture was incubated in the presence of the D2 antagonist Sulpiride.

[2] = system: dopaminergic neurons; assay: DansylD1 fluorescence in dopaminergic neurons after toxin exposure; type: cell-based, human; settings: for DansylD1 fluorescence levels by micro-plate reader: 2 week differentiated live mature DA neurons, different toxin concentrations, 1 day, DansylD1 added again, FIG. 11
Protocol: For Binding and uptake of the fluorescent ligand, 500-1000 nM of DansylD1™ (Five Photon Biochemicals™, Lot#81672) was administrated to the seeded cells after 2 weeks of differentiation on the coverslips or on 12/24 wells plastic plates for 10-15 minutes in 37° C. DansylD1 functions as the dopamine neurotransmitter in binding to the D2 dopamine receptor on Dopaminergic and GABAergic neurons and uptake through the dopamine transporter (DAT) by dopaminergic neurons. 50 nM of the D2 dopamine receptor antagonist—Sulpiride (sigma S112, Lot#108H4745) or 5 nM of the dopamine transporter (DAT) blocker—GBR (Sigma G9659, Lot#086K4104), were added for 10 minutes to the seeded cells in order to reduce the binding to non-dopaminergic neurons or to block the specific DansylD1 uptake respectively. Uptake levels of the dansylD1 fluorescent ligand molecule were detected and analyzed by fluorescence microscope and a fluorescence micro-plate reader (Bioteck, 333/515 nm). Acquisition and analysis was performed using Magelan software and Microsoft Excel.
Dopaminergic neurons were fluorescently labeled with Dansyl D1. Increasing levels of 6-OH dopamine (50 nM and 100 nM) were added to the dopaminergic neurons and following 1 day of culture, the neurons were contacted again with Dansyl D1. The cells were rinsed and then the amount of fluorescence was analyzed.
(§1) An additional experiment compared the effect of 100 nM 6-OH dopamine with 200 nM 6-OH dopamine. As illustrated in FIGS. 10A-10B, after addition of 200 nM 6-OH-dopamine to mature DA neurons the fluorescence levels of dansylD1 was decreased (green) and also the percentage of cells expressing TH (DA neuron marker) declined to 1-2% (FIGS. 10C and D).
(§2) Dansyl D1 was added to 2 week differentiated live mature DA neurons and the fluorescence levels quantified by fluorescence micro-plate reader. Later the cells were washed and different 6-OH-dopamine concentrations were added. After a day, dansylD1 was added again and the fluorescent levels measured once again.

[3] = system: mature DA neurons; assay: TH expression in mature DA neurons after toxin exposure; type: cell-based, human
Protocol: For staining, cells on the coverslips were blocked in 5% normal goat/donkey serum (NGS) for 1 hour at room temperature. The anti TH antibody was diluted 1:100 or 1:1000 in 1% normal donkey/goat serum (NGS) and applied for 1 hour at room temperature. The antibodies that was employed were rabbit anti-human TH polyclonal antibody or mouse anti-human TH monoclonal antibody, Cat No. p40101, purchased from Pel-freez, or Cat No. T1299 purchased from Sigma and rabbit anti hu Nurr1 ab AB5778 (Millipore 10 ug/ml) or mouse igG anti NurrI (millipore, 1:200 or 1:1000), Rabbit Anti DAT AB5802 (Millipore, 1:500-1:1000). Following three washes in PBS, swine-anti rabbit FITC or goat anti mouse Cy-3-antibody diluted 1:50 or 1:500 in 1% normal goat serum (NGS) was applied for 1 hour at room temperature. Cells were washed in PBS, fixed with 4% PFA and mounted in the presence of the nuclear counterstain DAPI for immunofluoresecent microscopic examination.
as §1

[4] = system: PC12 cells; assay: DansylD1 uptake calibration in PC-12 cells (fluorescence microscope); type: cell-based; settings: 500 nM DansylD1, dopamine as competitive inhibitor, GBR as dopamine transporter blocker, FIGS. 3A-3D
Protocol: as §3

[5] = system: DA neurons; assay: Protection of DA neurons from the toxin 6-OH dopamine; type: cell-based, human; settings: cells over-expressing GDNF; FIG. 12
Protocol: as §2

[6] = 200 nM toxin, mature DA neurons

Molecule: CCN1CCCC1CNC(=O)c1cc(S(N)(=O)=O)ccc1OC (stereo not shown) [sulpiride]
- DansylD1 signal from the cells surface ([1]; neuronal culture incubated with the D2 antagonist, fluorescent vesicles appear, FIGS. 8A-8B): less signal from the cells surface

Molecule: NCCc1cc(O)c(O)cc1O [6-OH-dopamine]
- amount of Dansyl D1 fluorescence in dopaminergic cells ([2]; 50 nM and 100 nM toxin, 1 day of culture, relabeled with Dansyl D1, FIGS. 10A-10C): reduced
- Dansyl-D1 uptake ([2]; 100 nM toxin): significant decrease
- fluorescence levels of dansylD1 [2, 6]: decreased
- DansylD1 fluorescence levels by micro-plate reader [2]: decreased by half
- DansylD1 fluorescence levels by micro-plate reader ([2]; listed as 6-OH dopamine): reduced in correlation with the amount of toxin
- TH positive cells ([3]; 100 nM toxin): only minor reduction
- percentage of cells expressing TH [3, 6]: 1-2%

Molecule: NCCc1ccc(O)c(O)c1 [dopamine]
- DansylD1 fluorescence level [1]: caused the fluorescence level to decline
- amount of DansylD1 fluorescence in the cells [4]: decreased the amount of fluorescence

Molecule: Cl.Cl.Fc1ccc(C(OCCN2CCN(CCCc3ccccc3)CC2)c2ccc(F)cc2)cc1 [GBR]
- DansylD1 fluorescence level [1]: caused the fluorescence level to decline
- amount of DansylD1 fluorescence in the cells [4]: decreased the amount of fluorescence

B1: GDNF: neurotrophic factor over-expressed by cells that protected DA neurons from the toxin (protein, UniProt P39905 78-211, looked up)
Glial cell line-derived …: SPDKQMAVLPRRERNRQAAAANPENSRGKGRRGQRGKNRGCVLTAIHLNVTDLGLGYETKEELIFRYCSGSCDAAETTYDKILKNLSRNRRLVSDKVGQACCRPIAFDDDLSFLDDNLVYHILRKHSAKRCGCI
- protection of neurons from the toxin 6-OH dopamine [5]: protected
